Reference: PubChem BioAssay (NCI)
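Tested at 5 concentrations; 48 h exposure; 96-well plates; endpoints linearly interpolated, else capped at highest concentration. GI50: concentration for 50% inhibition of growth. Definition used: TGI = concentration required for complete inhibition of growth.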

Legend:
Assay in all cases: inhibition of tumour cell growth, NCI panel, 48 h
NCI-H23 lung = tested on: NCI-H23 lung
SF-295 CNS = tested on: SF-295 CNS
A549 NSCLC = tested on: A549 NSCLC
EKVX NSCLC = tested on: EKVX NSCLC
PC-3 prostate = tested on: PC-3 prostate
SF-268 CNS = tested on: SF-268 CNS
CCRF-CEM leukemia = tested on: CCRF-CEM leukemia
HCT-116 colon = tested on: HCT-116 colon
HCT-15 colon = tested on: HCT-15 colon
UO-31 renal = tested on: UO-31 renal
UACC-257 melanoma = tested on: UACC-257 melanoma
HT29 colon = tested on: HT29 colon
RXF 393 renal = tested on: RXF 393 renal
OVCAR-4 ovarian = tested on: OVCAR-4 ovarian
NCI-H226 lung = tested on: NCI-H226 lung
SNB-75 CNS = tested on: SNB-75 CNS
BT-549 breast = tested on: BT-549 breast
UACC-62 melanoma = tested on: UACC-62 melanoma
MDA-MB-231 breast = tested on: MDA-MB-231 breast
OVCAR-5 ovarian = tested on: OVCAR-5 ovarian
HL-60(TB) leukemia = tested on: HL-60(TB) leukemia
SR leukemia = tested on: SR leukemia
HOP-62 NSCLC = tested on: HOP-62 NSCLC
K-562 leukemia = tested on: K-562 leukemia
A498 renal = tested on: A498 renal
RPMI-8226 leukemia = tested on: RPMI-8226 leukemia
KM12 colon = tested on: KM12 colon
SNB-19 CNS = tested on: SNB-19 CNS
NCI/ADR-RES ovarian = tested on: NCI/ADR-RES ovarian
T-47D breast = tested on: T-47D breast
SK-MEL-28 melanoma = tested on: SK-MEL-28 melanoma
SW-620 colon = tested on: SW-620 colon
CAKI-1 renal = tested on: CAKI-1 renal
MDA-MB-435 = tested on: MDA-MB-435
MALME-3M melanoma = tested on: MALME-3M melanoma
OVCAR-3 ovarian = tested on: OVCAR-3 ovarian
M14 melanoma = tested on: M14 melanoma
NCI-H522 lung = tested on: NCI-H522 lung
MOLT-4 leukemia = tested on: MOLT-4 leukemia
HS 578T breast = tested on: HS 578T breast
ACHN renal = tested on: ACHN renal
SF-539 CNS = tested on: SF-539 CNS
LOX IMVI melanoma = tested on: LOX IMVI melanoma
COLO 205 colon = tested on: COLO 205 colon
786-0 renal = tested on: 786-0 renal
SK-MEL-5 melanoma = tested on: SK-MEL-5 melanoma
MDA-MB-468 breast = tested on: MDA-MB-468 breast
HCC-2998 colon = tested on: HCC-2998 colon
HOP-92 NSCLC = tested on: HOP-92 NSCLC
U251 CNS = tested on: U251 CNS
SK-OV-3 ovarian = tested on: SK-OV-3 ovarian
IGROV1 ovarian = tested on: IGROV1 ovarian
SK-MEL-2 melanoma = tested on: SK-MEL-2 melanoma
TK-10 renal = tested on: TK-10 renal
MCF7 breast = tested on: MCF7 breast
DU-145 prostate = tested on: DU-145 prostate
SN12C renal = tested on: SN12C renal
NCI-H460 lung = tested on: NCI-H460 lung
OVCAR-8 ovarian = tested on: OVCAR-8 ovarian

CS(=O)(=O)Nc1cc(-c2ccc3ncnc(Nc4ccc(OCc5cccnc5)c(Cl)c4)c3c2)cnc1Cl
GI50 (NCI-H23 lung): 1370 nM
TGI (NCI-H23 lung): 5.33 µM
GI50 (SF-295 CNS): 2370 nM
TGI (SF-295 CNS): 12.1 µM
GI50 (A549 NSCLC): 7.76 µM
TGI (A549 NSCLC): 25.1 µM
GI50 (EKVX NSCLC): 970 nM
TGI (EKVX NSCLC): 6.25 µM
GI50 (PC-3 prostate): 1660 nM
TGI (PC-3 prostate): 14.3 µM
GI50 (SF-268 CNS): 835 nM
TGI (SF-268 CNS): 10.4 µM
GI50 (CCRF-CEM leukemia): 801 nM
TGI (CCRF-CEM leukemia): > 37.9 µM
GI50 (HCT-116 colon): 1690 nM
TGI (HCT-116 colon): 4.55 µM
GI50 (HCT-15 colon): 2840 nM
TGI (HCT-15 colon): 17 µM
GI50 (UO-31 renal): 1680 nM
TGI (UO-31 renal): 20.3 µM
GI50 (UACC-257 melanoma): 1620 nM
TGI (UACC-257 melanoma): 12.6 µM
GI50 (HT29 colon): 1950 nM
TGI (HT29 colon): 13.2 µM
GI50 (RXF 393 renal): 367 nM
TGI (RXF 393 renal): 2440 nM
GI50 (OVCAR-4 ovarian): 4.91 µM
TGI (OVCAR-4 ovarian): 90.4 µM
GI50 (NCI-H226 lung): 1430 nM
TGI (NCI-H226 lung): 10.3 µM
GI50 (SNB-75 CNS): 139 nM
TGI (SNB-75 CNS): 4.37 µM
GI50 (BT-549 breast): 379 nM
TGI (BT-549 breast): 2220 nM
GI50 (UACC-62 melanoma): 419 nM
TGI (UACC-62 melanoma): 2320 nM
GI50 (MDA-MB-231 breast): 960 nM
TGI (MDA-MB-231 breast): 3.05 µM
GI50 (OVCAR-5 ovarian): 2240 nM
TGI (OVCAR-5 ovarian): 18 µM
GI50 (HL-60(TB) leukemia): 335 nM
TGI (HL-60(TB) leukemia): 10.3 µM
GI50 (SR leukemia): 746 nM
TGI (SR leukemia): > 20.6 µM
GI50 (HOP-62 NSCLC): 1560 nM
TGI (HOP-62 NSCLC): 40.9 µM
GI50 (K-562 leukemia): 1850 nM
TGI (K-562 leukemia): 32.4 µM
GI50 (A498 renal): 1840 nM
TGI (A498 renal): 6.49 µM
GI50 (RPMI-8226 leukemia): 2050 nM
TGI (RPMI-8226 leukemia): 6.8 µM
GI50 (KM12 colon): 3.82 µM
TGI (KM12 colon): 15.2 µM
GI50 (SNB-19 CNS): 1150 nM
TGI (SNB-19 CNS): 9.24 µM
GI50 (NCI/ADR-RES ovarian): 32.7 µM
TGI (NCI/ADR-RES ovarian): > 100 µM
GI50 (T-47D breast): 150 nM
TGI (T-47D breast): 1470 nM
GI50 (SK-MEL-28 melanoma): 652 nM
TGI (SK-MEL-28 melanoma): 8.64 µM
GI50 (SW-620 colon): 1900 nM
TGI (SW-620 colon): 10.9 µM
GI50 (CAKI-1 renal): 935 nM
TGI (CAKI-1 renal): 6.45 µM
GI50 (MDA-MB-435): 1160 nM
TGI (MDA-MB-435): 9.24 µM
GI50 (MALME-3M melanoma): 271 nM
TGI (MALME-3M melanoma): 2130 nM
GI50 (OVCAR-3 ovarian): 700 nM
TGI (OVCAR-3 ovarian): 3.48 µM
GI50 (M14 melanoma): 1510 nM
TGI (M14 melanoma): 13.8 µM
GI50 (NCI-H522 lung): 641 nM
TGI (NCI-H522 lung): 4.39 µM
GI50 (MOLT-4 leukemia): 465 nM
TGI (MOLT-4 leukemia): 4.91 µM
GI50 (HS 578T breast): 196 nM
TGI (HS 578T breast): 1700 nM
GI50 (ACHN renal): 4.45 µM
TGI (ACHN renal): > 48.8 µM
GI50 (SF-539 CNS): 852 nM
TGI (SF-539 CNS): 3.5 µM
GI50 (LOX IMVI melanoma): 792 nM
TGI (LOX IMVI melanoma): 2730 nM
GI50 (COLO 205 colon): 1410 nM
TGI (COLO 205 colon): 3.59 µM
GI50 (786-0 renal): 1810 nM
TGI (786-0 renal): 11.1 µM
GI50 (SK-MEL-5 melanoma): 617 nM
TGI (SK-MEL-5 melanoma): 1930 nM
GI50 (MDA-MB-468 breast): 208 nM
TGI (MDA-MB-468 breast): 962 nM
GI50 (HCC-2998 colon): 1590 nM
TGI (HCC-2998 colon): 5.22 µM
GI50 (HOP-92 NSCLC): 183 nM
TGI (HOP-92 NSCLC): 1970 nM
GI50 (U251 CNS): 917 nM
TGI (U251 CNS): 4.65 µM
GI50 (SK-OV-3 ovarian): 1490 nM
TGI (SK-OV-3 ovarian): 7.14 µM
GI50 (IGROV1 ovarian): 231 nM
TGI (IGROV1 ovarian): 1090 nM
GI50 (SK-MEL-2 melanoma): 901 nM
TGI (SK-MEL-2 melanoma): 2700 nM
GI50 (TK-10 renal): 714 nM
TGI (TK-10 renal): 5.51 µM
GI50 (MCF7 breast): 410 nM
TGI (MCF7 breast): 8.33 µM
GI50 (DU-145 prostate): 2740 nM
TGI (DU-145 prostate): 21.5 µM
GI50 (SN12C renal): 904 nM
TGI (SN12C renal): 11.3 µM
GI50 (NCI-H460 lung): 3.58 µM
TGI (NCI-H460 lung): 21.4 µM
GI50 (OVCAR-8 ovarian): 2560 nM
TGI (OVCAR-8 ovarian): 20.5 µM
